# Where two headings read alike, the source gives them in different places.
# Assays:
# [1] = system: DLD1 BRCA2−/− cells; assay: Cell proliferation assay (DLD1 BRCA2−/−); assay type: cell-based; details: at least 7 days, Cell-Titer Glo, read-out: DLD1 BRCA2−/− anti-proliferation assay
# Method: (§1) For PARPi sensitivity, exponentially growing MDA-MB-436 and DLD1 BRCA2^−/− cells were seed in 96 or 384-well plates at very low density with the goal of not splitting for at least 7 days (typically 0.3k-1.2k cells/well). Cells were plated on […] and treated with DMSO or increasing concentrations of PARP1 inhibitors on Day 0. At the end of the experiment, cell viability was estimated using Cell-Titer Glo (Promega).
# [2] = system: MDA-MB-436 cells; assay: Cell proliferation assay (MDA-MB-436); assay type: cell-based; details: at least 7 days, Cell-Titer Glo, read-out: MDA-MB-436 anti-proliferation assay
# Method: as §1
# [3] = target: PARP1 (Homo sapiens, UniProt P09874); assay: PARP1-DNA enzymatic trapping assay; assay type: biochemical; details: 10 nM PARP1, 5 nM DNA probe, 2 mM NAD+, fluorescence polarization read at 30 minutes
# Method: Enzymatic trapping assay is to measure the dissociation process of PARP1 from fluorescein-labeled DNA during the enzymatic activity. Assay was conducted at a total 10 μL of reaction volume, including 10 nM PARP1 and 5 nM DNA probe in the binding buffer (50 mM Tris-HCl pH 8.0, 50 mM NaCl, 1 mM MgCl2, 0.1 mM EDTA, and 0.01% IGEPAL), and was commenced by adding a final concentration of 2 mM NAD+ substrate.
# PARP1 Poly-ADP ribosylation (PARylation) inhibitory assay was conducted with compounds dissolved in DMSO at a starting concentration of 5 μM. Dissolved compounds were added to 384-well microplate and premixed with PARPI enzyme and DNA probe for 20 minutes incubation. Enzymatic reactions were started by adding NAD+ to mixture, and each well was read at 30 minutes by microplate reader (VICTOR Nivo®, PerkinElmer) to detect the fluorescence polarization signal at 480 nm excitation/530 nm dual emission.
# All measured IC50 values were calculated using four parameters dose-response inhibition model in GraphPad Prism 8.0.2 (La Jolla, California, USA, www.graphpad.com).
# [4] = Homo sapiens, MDA-MB-436, 168 h
# Chain of PARP1 (P09874 whole entry): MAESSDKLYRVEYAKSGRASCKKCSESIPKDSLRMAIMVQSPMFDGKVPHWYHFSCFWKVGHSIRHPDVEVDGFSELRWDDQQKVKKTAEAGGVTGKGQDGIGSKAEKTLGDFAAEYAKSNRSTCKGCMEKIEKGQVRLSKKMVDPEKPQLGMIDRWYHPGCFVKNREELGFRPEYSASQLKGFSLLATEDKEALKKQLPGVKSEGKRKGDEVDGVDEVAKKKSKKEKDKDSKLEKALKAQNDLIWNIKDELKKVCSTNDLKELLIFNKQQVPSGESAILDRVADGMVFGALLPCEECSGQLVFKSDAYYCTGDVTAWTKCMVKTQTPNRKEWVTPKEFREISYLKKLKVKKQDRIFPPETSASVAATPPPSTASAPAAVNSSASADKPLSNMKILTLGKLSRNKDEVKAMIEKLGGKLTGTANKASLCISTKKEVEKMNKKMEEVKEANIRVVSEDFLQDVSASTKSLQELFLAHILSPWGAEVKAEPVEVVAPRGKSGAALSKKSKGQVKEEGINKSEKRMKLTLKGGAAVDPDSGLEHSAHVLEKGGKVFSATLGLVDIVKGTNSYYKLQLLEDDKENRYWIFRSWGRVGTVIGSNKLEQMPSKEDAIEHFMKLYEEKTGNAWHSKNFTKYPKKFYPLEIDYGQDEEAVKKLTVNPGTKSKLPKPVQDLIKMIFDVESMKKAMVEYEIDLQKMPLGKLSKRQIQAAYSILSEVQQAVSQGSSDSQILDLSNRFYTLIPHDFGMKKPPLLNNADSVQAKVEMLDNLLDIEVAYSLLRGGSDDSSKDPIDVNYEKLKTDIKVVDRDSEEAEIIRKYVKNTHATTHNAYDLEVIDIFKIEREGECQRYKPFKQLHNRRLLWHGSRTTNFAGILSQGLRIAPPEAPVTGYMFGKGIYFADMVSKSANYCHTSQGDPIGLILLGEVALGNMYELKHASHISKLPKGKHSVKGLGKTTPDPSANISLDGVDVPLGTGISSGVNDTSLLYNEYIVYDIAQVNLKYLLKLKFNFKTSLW
IC50 [1] [nM],IC50 [2] [nM],IC50 [3] [nM],"IC50 ([1]; Homo sapiens, DLD-1, 168 h) [nM]","IC50 [2, 4] [nM]",SMILES
5.02,3.93,9.73,–,–,CCc1cc2ncc(CN3C[C@H]4CN(c5ccc(C(=O)NC)nc5F)C[C@@H]4C3)cc2[nH]c1=O [Compound 28]
–,–,41.1,45.3,15.7,CNC(=O)c1ccc(N2C[C@@H]3CN(Cc4ccc5nc(C)c(=O)[nH]c5c4F)C[C@H]3C2)c(F)n1 (racemic) [Compound 3]
–,–,47.3,13.9,5.13,CCC1Oc2ncc(CN3C[C@H]4CN(c5ccc(C(=O)NC)nc5F)C[C@@H]4C3)cc2NC1=O (mixture of isomers) [Compound 8]
–,–,> 500,371,407,CNC(=O)c1ccc(N2C[C@@H]3CN(Cc4cnc5cc(C)c(=O)[nH]c5c4)C[C@H]3C2)c(C)n1 [Compound 24]
5.59,9.85,33.1,–,–,CCC1Oc2ncc(CN3C[C@H]4CN(c5ccc(C(=O)NC)nc5)C[C@@H]4C3)cc2NC1=O (mixture of isomers) [Compound 14]
–,–,24.8,4.63,2.59,CNC(=O)c1ccc(N2C[C@@H]3CN(Cc4cnc5c(c4)NC(=O)[C@@H]4CCCN54)C[C@H]3C2)cn1 (racemic) [Compound 7]
–,–,10.5,1.09,0.78,CCc1cc2ncc(CN3C[C@@H]4CN(c5ccc(C(=O)NCCOC)nc5F)C[C@H]4C3)cc2[nH]c1=O [Compound 34]
–,–,26.7,9.14,1.41,CNC(=O)c1ccc(N2C[C@H]3CN(Cc4ccc5c6c(c(=O)[nH]c5c4)CCOC6)C[C@@H]3C2)cn1 [Compound 78]
–,–,5.16,8.3,1.74,CO[C@H]1C[C@@H](NC(=O)c2ccc(N3C[C@H]4CN(Cc5ccc6c7c(c(=O)[nH]c6c5)OCCC7)C[C@@H]4C3)c(F)n2)C1 [Compound 90]
–,–,4.32,8.28,1.08,O=C(NC1COC1)c1ccc(N2C[C@H]3CN(Cc4ccc5c6c(c(=O)[nH]c5c4)OCCC6)C[C@@H]3C2)c(F)n1 [Compound 89]
–,–,8.6,10.2,0.93,CO[C@H]1C[C@@H](NC(=O)c2ccc(N3C[C@H]4CN(Cc5cnc6c7c(c(=O)[nH]c6c5)COCC7)C[C@@H]4C3)cn2)C1 [Compound 75]
–,–,20.5,7.49,5.06,CNC(=O)c1ccc(N2C[C@H]3CN(Cc4cnc5cc(C)c(=O)[nH]c5c4)C[C@@H]3C2)c(C)n1 [Compound 25]
–,–,8.09,0.45,0.37,Cc1cc2ncc(CN3C[C@@H]4CN(c5ccc(C(=O)NC6CC6)nc5F)C[C@H]4C3)cc2[nH]c1=O [Compound 30]
18.6,39.9,111,–,–,CCC1Oc2ncc(CN3C[C@H]4CN(c5ccc(C(=O)NC)nc5)C[C@@H]4C3)cc2NC1=O (mixture of isomers) [Compound 5]
–,–,8.26,4.98,0.57,CO[C@H]1C[C@H](NC(=O)c2ccc(N3C[C@H]4CN(Cc5cnc6c7c(c(=O)[nH]c6c5)COCC7)C[C@@H]4C3)c(F)n2)C1 [Compound 74]

# From patent US20260226076A1, “FUSED MULTICYCLIC COMPOUNDS AND THEIR USE AS PARP1 INHIBITORS” (LAEKNA THERAPEUTICS SHANGHAI CO., LTD., priority 2022, published 2026)
